# Assay results taken from patent publication US8772319B2 (priority 2004, dated 2014).
# Values joined by “and” are separate entries in the source; they are usually repeats but may differ in a detail not shown here. Equal entries are not always repeated. Structures can show the parent of a compound that is named as a salt. Where two headings read alike, the source gives them in different places.
# What was measured:
# [1] = target: T1, human dopamine transporter (hDAT) (Homo sapiens, UniProt Q01959); test: biochemical; assay type: binding
# [2] = target: T1, human dopamine transporter (hDAT); test: cell-based
# male Swiss-Webster mice [3] = test: Locomotor activity, compound alone, 1-h session; assay type: in vivo, mouse; details: for ED50: Mus musculus, ip, 1 h, read-out: ED50, dose producing 1/2 maximal stimulant activity (S, stimulation); for mode of action: ligand alone study; for ME/CME, Maximal Effect/Cocaine Maximal Effect: mouse locomotor activity; for effect on spontaneous LMA: compound alone
# Method: (§1) 3. Locomotor Activity. […] Panels of infrared beams (16 beams) and corresponding photodetectors were located in the horizontal direction along the sides of each activity chamber. […] Just prior to placement in the apparatus, all mice received a saline injection IP. In all studies, horizontal activity (interruption of 1 photocell beam) was measured for 1-h within 10-min periods. Testing was conducted with one mouse per activity chamber. […] Plot the mean (±SEM) maximal stimulant activity (total counts in the 30 min period divided by 3) vs dose. Perform a log10 transformation of the 30 min period average counts for individual subjects to homogenize variances for subsequent analyses. […] Fit the 30 min period average counts across subjects to a function of log10 dose using least-squares curve-fitting analyses (i.e. TableCurve software from Jandel). Estimate the maximum effect from the resultant dose-response curve. […] Determine the ED50 (dose that produces ½ maximal stimulant activity) from a linear regression analysis of the ascending portion (up to the dose that produces a maximal effect) of the curve. […] Plot the mean (±SEM) activity (total counts in the 30 min period divided by 3) vs dose. Perform a log10 transformation of the 30 min period average counts for individual subjects to homogenize variances for subsequent analyses. Conduct an ANOVA and contrast (specified a priori) each dose of the test compound to the vehicle to determine significant (p<0.05) dose effects. Conduct a linear least-squares regression analysis; regress the min period average counts across subjects over the descending portion of the curve against the log10 dose of the test compound. […] Perform a log10 transformation of the 30 min period average counts for individual subjects to homogenize variances for subsequent analyses. […] Conduct a linear least-squares regression analysis; regress the 30 min period average counts across subjects over the descending portion of the curve against the log10 dose of the test compound. […] Locomotor Activity 8-hour time course/dose response study. […] A panel of infrared beams (16 beams) and corresponding photodetectors were located in the horizontal direction along the sides of each activity chamber. A 7.5-W incandescent light above each chamber provided dim illumination. Fans provided an 80-dB ambient noise level within the chamber. […] In all studies, horizontal activity (interruption of photocell beams) was measured for 8-h within 10-min periods, beginning at 0800 hrs (2 hours after lights on). Testing was conducted with one mouse per activity chamber. Compound alone study.
# male Swiss-Webster mice [4] = test: Cocaine/compound interaction study on locomotor activity; assay type: in vivo, mouse; details: for Attenuation of cocaine-induced LMA: 20 mg/kg of cocaine; for AD50, dose attenuating cocaine-induced stimulation by 50%: Table 8, ligand-cocaine interaction study, 20 mg/kg cocaine IP
# [5] = target: T2, human norepinephrine transporter (hNET) (Homo sapiens, UniProt P23975); test: biochemical; details: Table 5, read-out: NET binding affinity Ki
# male Swiss-Webster mice [6] = test: Locomotor activity 8-hour time course/dose response study; details: for ED50: Mus musculus, ip, 8 h, read-out: ED50, dose producing 1/2 maximal stimulant activity (S, stimulation)
# Method: as §1
# [7] = target: T3, human serotonin transporter (hSERT) (Homo sapiens, UniProt P31645); test: biochemical; details: Table 5; [125I]RTI-55; oxalate salts; read-out: SERT binding affinity Ki
# [8] = target: T3, human serotonin transporter (hSERT); test: cell-based
# [9] = target: T2, human norepinephrine transporter (hNET); test: cell-based; details: Table 6, read-out: Reuptake Inhibition [3H]NE IC50
# [10] = Table 8, mouse, IP, ligand alone, 1-h session
# [11] = Reuptake Inhibition [3H]DA IC50, Table 6
# [12] = Reuptake Inhibition [3H]5-HT IC50, Table 6
# T2 sequence (P23975 whole entry): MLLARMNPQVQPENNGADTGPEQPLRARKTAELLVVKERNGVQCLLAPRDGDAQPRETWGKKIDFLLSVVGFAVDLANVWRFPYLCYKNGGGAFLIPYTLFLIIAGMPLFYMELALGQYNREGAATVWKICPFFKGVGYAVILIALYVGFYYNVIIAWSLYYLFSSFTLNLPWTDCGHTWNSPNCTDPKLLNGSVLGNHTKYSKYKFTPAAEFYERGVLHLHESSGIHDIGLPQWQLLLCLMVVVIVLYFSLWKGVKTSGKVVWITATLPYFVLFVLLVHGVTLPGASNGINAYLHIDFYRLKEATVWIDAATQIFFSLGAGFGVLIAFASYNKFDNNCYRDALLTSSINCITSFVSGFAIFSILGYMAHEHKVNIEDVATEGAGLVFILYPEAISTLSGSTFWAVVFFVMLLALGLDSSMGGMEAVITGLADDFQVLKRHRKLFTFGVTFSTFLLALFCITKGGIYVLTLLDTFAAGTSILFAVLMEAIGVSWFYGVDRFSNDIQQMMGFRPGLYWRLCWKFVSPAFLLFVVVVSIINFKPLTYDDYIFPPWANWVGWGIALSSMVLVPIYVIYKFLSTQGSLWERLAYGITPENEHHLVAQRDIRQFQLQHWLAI
# T3 sequence (P31645 whole entry): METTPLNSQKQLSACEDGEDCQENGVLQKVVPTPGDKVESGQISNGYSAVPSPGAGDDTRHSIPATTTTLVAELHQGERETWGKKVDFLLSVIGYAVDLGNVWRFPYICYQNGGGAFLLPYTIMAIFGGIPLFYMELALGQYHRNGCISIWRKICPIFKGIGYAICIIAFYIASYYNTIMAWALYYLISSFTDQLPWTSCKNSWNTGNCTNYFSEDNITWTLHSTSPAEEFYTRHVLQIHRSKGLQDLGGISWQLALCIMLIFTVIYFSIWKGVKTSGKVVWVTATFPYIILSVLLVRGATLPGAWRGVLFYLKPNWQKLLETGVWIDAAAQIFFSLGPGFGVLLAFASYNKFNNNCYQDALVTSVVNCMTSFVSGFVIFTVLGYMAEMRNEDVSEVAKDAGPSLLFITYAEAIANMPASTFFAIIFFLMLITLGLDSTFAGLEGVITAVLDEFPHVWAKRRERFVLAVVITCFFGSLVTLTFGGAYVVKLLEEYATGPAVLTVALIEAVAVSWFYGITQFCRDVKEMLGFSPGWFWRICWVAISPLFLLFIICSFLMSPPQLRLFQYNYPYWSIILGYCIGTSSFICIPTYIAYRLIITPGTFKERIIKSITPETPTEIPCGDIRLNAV
# T1 sequence (Q01959 whole entry): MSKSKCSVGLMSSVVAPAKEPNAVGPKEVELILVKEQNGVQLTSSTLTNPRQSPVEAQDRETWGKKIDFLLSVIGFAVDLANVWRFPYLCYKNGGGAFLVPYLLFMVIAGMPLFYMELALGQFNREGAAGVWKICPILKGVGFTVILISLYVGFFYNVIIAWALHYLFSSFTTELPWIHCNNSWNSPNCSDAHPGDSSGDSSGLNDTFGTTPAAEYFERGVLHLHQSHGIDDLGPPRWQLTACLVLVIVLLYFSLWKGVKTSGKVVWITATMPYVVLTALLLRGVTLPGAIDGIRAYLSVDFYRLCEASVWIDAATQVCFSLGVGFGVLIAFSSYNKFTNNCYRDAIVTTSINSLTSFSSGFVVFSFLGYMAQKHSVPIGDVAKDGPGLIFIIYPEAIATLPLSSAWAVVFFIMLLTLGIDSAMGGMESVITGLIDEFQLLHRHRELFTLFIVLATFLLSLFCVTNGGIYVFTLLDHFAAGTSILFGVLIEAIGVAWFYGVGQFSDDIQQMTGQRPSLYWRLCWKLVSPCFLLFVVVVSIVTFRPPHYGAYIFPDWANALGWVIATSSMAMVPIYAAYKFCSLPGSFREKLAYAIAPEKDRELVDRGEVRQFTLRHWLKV
smiles,measurement,setting,value
"O=C1CN(CCCCOC(c2ccc(F)cc2)c2ccc(F)cc2)CCN1 (as salt: oxalate) [Compound 27, 2-Oxo-4-[4-[bis(4-fluorophenyl)methoxy]butyl]piperazine]",melting point,,120 to 123 °C
"Fc1ccc(C(OCCCCN2CCN(c3ccccc3)CC2)c2ccc(F)cc2)cc1 (as salt: oxalate) [Compound 29, 1-Phenyl-4-[4-[bis(4-fluorophenyl)methoxy]butyl]piperazine]",melting point,,185 to 187 °C
"Fc1ccc(C(OCCCCN2CCN(c3ccccc3F)CC2)c2ccc(F)cc2)cc1 (as salt: oxalate) [Compound 30, 1-(2-Fluorophenyl)-4-[4-[bis(4-fluorophenyl)methoxy]butyl]piperazine]",melting point,,156 to 158 °C
"Fc1ccc(C(OCCCCN2CCN(c3ccc(Cl)cc3)CC2)c2ccc(F)cc2)cc1 (as salt: oxalate) [Compound 34, 1-(4-Chlorophenyl)-4-[4-[bis(4-fluorophenyl)methoxy]butyl]piperazine]",melting point,,179 to 181 °C
"COc1ccccc1N1CCN(CCCCOC(c2ccc(F)cc2)c2ccc(F)cc2)CC1 (as salt: oxalate) [Compound 35, 1-(2-Methoxyphenyl)-4-[4-[bis(4-fluorophenyl)methoxy]butyl]piperazine]",melting point,,139 to 142 °C
"O=[N+]([O-])c1ccc(N2CCN(CCCCOC(c3ccc(F)cc3)c3ccc(F)cc3)CC2)cc1 (as salt: oxalate) [Compound 38, 1-[4-Nitrophenyl]-4-[1-[bis(4-fluorophenyl)methoxy]-4-butyl]piperazine]",melting point,,196 to 198 °C
"O=C(c1ccccc1)N1CCN(CCCCOC(c2ccc(F)cc2)c2ccc(F)cc2)CC1 (as salt: oxalate) [Compound 40, 1-Benzoyl-4-[1-[bis(4-fluorophenyl)methoxy]-4-butyl]piperazine]",melting point,,121 to 123 °C
"Fc1ccc(C(OCCCCN2CCN(Cc3ccc4c(c3)OCO4)CC2)c2ccc(F)cc2)cc1 (as salt: oxalate) [Compound 41, 1-Benzo[1,3]dioxol-5-ylmethyl-4-[4-[bis(4-fluorophenyl)methoxy]butyl]piperazine]",melting point,,231 to 234 °C
"O=[N+]([O-])c1ccc(S(=O)(=O)N2CCN(CCCCOC(c3ccc(F)cc3)c3ccc(F)cc3)CC2)cc1 (as salt: oxalate) [Compound 42, 1-[4-[Bis(4-fluorophenyl)methoxy]butyl]-4-(4-nitrobenzenesulfonyl)piperazine]",melting point,,170 to 173 °C
"Fc1ccc(C(OCCCCN2CCN(c3ccccc3F)CC2)c2ccc(F)cc2)cc1 [Compound 30, 1-(2-Fluorophenyl)-4-[4-[bis(4-fluorophenyl)methoxy]butyl]piperazine]",Binding Ratios NET/DAT,[1]; Table 5,10.8
same,Binding Ratios SERT/DAT,[1]; Table 5,0.8
same,Discrimination Ratios (DR) [3H]DA reuptake/DAT binding,[2]; Table 6,11.9
same,ED50,male Swiss-Webster mice [3],0.015 mg/kg
same,mode of action,male Swiss-Webster mice [3]; Table 8,monophasic
same,"ME/CME, Maximal Effect/Cocaine Maximal Effect",male Swiss-Webster mice [3]; Table 8,0.49
same,effect on spontaneous LMA,male Swiss-Webster mice [3]; mouse,significant increase
same,Attenuation of cocaine-induced LMA,male Swiss-Webster mice [4],failed to attenuate
same,"AD50, dose attenuating cocaine-induced stimulation by 50%",male Swiss-Webster mice [4],no attenuation
"Fc1ccc(C(OCCCCN2CCN(c3cccc(C(F)(F)F)c3)CC2)c2ccc(F)cc2)cc1 [Compound 36, 1-[3-(Trifluoromethyl)phenyl]-4-[4-[bis(4-fluorophenyl)methoxy]butyl]piperazine]",Binding Ratios NET/DAT,[1]; Table 5,6.8
same,Binding Ratios SERT/DAT,[1]; Table 5,6.8
same,Ki,"[5]; [125I]RTI-55, oxalate salts",0.222 ± 0.0097 µM
same,Discrimination Ratios (DR) [3H]DA reuptake/DAT binding,[2]; Table 6,11.7
same,mode of action,male Swiss-Webster mice [3]; Table 8,monophasic
same,"ID50, dose producing 1/2 maximal depressant activity (I, inhibition)",male Swiss-Webster mice [3]; [10],113 mg/kg and 113/I^g mg/kg
same,effect on spontaneous LMA,male Swiss-Webster mice [3]; mouse,Significant suppression
same,"AD50, dose attenuating cocaine-induced stimulation by 50%",male Swiss-Webster mice [4],18.35 mg/kg
same,ED50,male Swiss-Webster mice [6],1.1 mg/kg
same,"ME/CME, Maximal Effect/Cocaine Maximal Effect","male Swiss-Webster mice [6]; Table 9, 8 hours",0.46
same,mode of action,"male Swiss-Webster mice [6]; Table 9, ligand alone study, 8 hours",monophasic
"O=[N+]([O-])c1ccc(N2CCN(CCCCOC(c3ccc(F)cc3)c3ccc(F)cc3)CC2)cc1 [Compound 38, 1-[4-Nitrophenyl]-4-[1-[bis(4-fluorophenyl)methoxy]-4-butyl]piperazine]",Ki,[1],60 ± 19 nM
same,Binding Ratios NET/DAT,[1]; Table 5,4.0
same,Binding Ratios SERT/DAT,[1]; Table 5,2.6
same,Ki,[7],154 ± 44 nM
same,Ki,"[5]; [125I]RTI-55, oxalate salts",0.239 ± 0.013 µM
same,IC50,[2]; [11],2350 ± 540 nM
same,Discrimination Ratios (DR) [3H]DA reuptake/DAT binding,[2]; Table 6,39.2
same,IC50,[8]; [12],0.39 ± 0.13 µM
same,IC50,[9],0.23 ± 0.11 µM
"Fc1ccc(C(OCCCCN2CCN(Cc3ccc4c(c3)OCO4)CC2)c2ccc(F)cc2)cc1 [Compound 41, 1-Benzo[1,3]dioxol-5-ylmethyl-4-[4-[bis(4-fluorophenyl)methoxy]butyl]piperazine]",Ki,[1],33 ± 13 nM
same,Binding Ratios NET/DAT,[1]; Table 5,1.7
same,Binding Ratios SERT/DAT,[1]; Table 5,1.8
same,Ki,[7],59 ± 22 nM
same,Ki,"[5]; [125I]RTI-55, oxalate salts",0.055 ± 0.018 µM
same,IC50,[2]; [11],1000 ± 60 nM
same,Discrimination Ratios (DR) [3H]DA reuptake/DAT binding,[2]; Table 6,30.3
same,IC50,[8]; [12],3.28 ± 0.61 µM
same,IC50,[9],0.043 ± 0.019 µM
"O=[N+]([O-])c1ccc(S(=O)(=O)N2CCN(CCCCOC(c3ccc(F)cc3)c3ccc(F)cc3)CC2)cc1 [Compound 42, 1-[4-[Bis(4-fluorophenyl)methoxy]butyl]-4-(4-nitrobenzenesulfonyl)piperazine]",Binding Ratios NET/DAT,[1]; Table 5,>13.2
same,Binding Ratios SERT/DAT,[1]; Table 5,6.5
same,Ki,"[1]; Table 5, [125I]RTI-55, oxalate salts, read-out: DAT binding affinity Ki",760 ± 220 nM
same,Ki,[7],4930 ± 670 nM
same,Ki,[5]; bound given in μM,> 10 µM
same,Discrimination Ratios (DR) [3H]DA reuptake/DAT binding,[2]; Table 6,5.5
same,IC50,"[2]; Table 6, read-out: Reuptake Inhibition [3H]DA IC50",4200 ± 1100 nM
same,IC50,"[8]; Table 6, bound given in μM, read-out: Reuptake Inhibition [3H]5-HT IC50",> 10 µM
same,IC50,[9]; bound given in μM,> 10 µM
same,"ED50, dose producing 1/2 maximal stimulant activity (S, stimulation)",male Swiss-Webster mice [3]; [10],no activity
same,Attenuation of cocaine-induced LMA,male Swiss-Webster mice [4],failed to attenuate
same,"AD50, dose attenuating cocaine-induced stimulation by 50%",male Swiss-Webster mice [4],no attenuation
"Fc1ccc(C(OCCN2CCN(CCCc3ccccc3)CC2)c2ccc(F)cc2)cc1 [GBR 12909, reference compound]",ED50,male Swiss-Webster mice [3],6.24 mg/kg
same,"ME/CME, Maximal Effect/Cocaine Maximal Effect",male Swiss-Webster mice [3]; Table 8,1.22
same,ED50,male Swiss-Webster mice [6],6.9 mg/kg
same,"ME/CME, Maximal Effect/Cocaine Maximal Effect","male Swiss-Webster mice [6]; Table 9, 8 hours",0.73
